Reference: publication PMC9610492, “BRD9 Inhibition by Natural Polyphenols Targets DNA Damage/Repair and Apoptosis in Human Colon Cancer Cells” (Nutrients, 2022)
Where two headings read alike, the source gives them in different places.

Tests used:
Type in all cases: binding
[1] = molecular target: T1, BRD9 (bromodomain-containing protein 9) (Homo sapiens, UniProt Q9H8M2); test: ITC with purified BRD9 (N = […]); BROMOscan […] inhibition at […]
T1 sequence (Q9H8M2 1-597): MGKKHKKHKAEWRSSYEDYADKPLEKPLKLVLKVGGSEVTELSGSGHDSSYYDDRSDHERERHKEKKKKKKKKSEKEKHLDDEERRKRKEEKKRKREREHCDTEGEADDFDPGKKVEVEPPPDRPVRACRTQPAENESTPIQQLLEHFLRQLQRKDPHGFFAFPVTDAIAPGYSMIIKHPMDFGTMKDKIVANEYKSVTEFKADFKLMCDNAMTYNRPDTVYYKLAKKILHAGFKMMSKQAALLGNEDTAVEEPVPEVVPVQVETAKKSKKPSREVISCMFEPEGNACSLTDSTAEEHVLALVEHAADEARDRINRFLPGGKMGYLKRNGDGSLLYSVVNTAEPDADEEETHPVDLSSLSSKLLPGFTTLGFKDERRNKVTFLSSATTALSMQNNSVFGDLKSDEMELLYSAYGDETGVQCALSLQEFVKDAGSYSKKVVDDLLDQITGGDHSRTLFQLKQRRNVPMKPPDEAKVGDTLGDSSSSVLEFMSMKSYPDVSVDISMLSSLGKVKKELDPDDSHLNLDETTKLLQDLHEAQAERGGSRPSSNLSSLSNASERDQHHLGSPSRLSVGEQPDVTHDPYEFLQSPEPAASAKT

[2] = molecular target: T1, BRD9 (bromodomain-containing protein 9); test: as above; remark: listed apart in the source
[3] = molecular target: T1, BRD9 (bromodomain-containing protein 9); test: BROMOscan at […], blinded positive control

## O=C(CCc1ccc(O)c(O)c1)c1c(O)cc(O)c([C@@H]2O[C@H](CO)[C@@H](O)[C@H](O)[C@H]2O)c1O [Aspalathin]
[1]
  Kd: 20 µM

## O=c1cc(-c2ccc(O)c(O)c2)oc2c([C@@H]3O[C@H](CO)[C@@H](O)[C@H](O)[C@H]3O)c(O)cc(O)c12 [Orientin]
[2]
  Kd: 20 µM

## CCn1cc(-c2cccc(C(F)(F)F)c2)c2sc(C(=N)NC3CCS(=O)(=O)CC3)cc2c1=O [iBRD9]
[3]
  inhibition at 10 µM: 99%
